The source of these data is patent US10100088B2, “Glycopeptide derivatives for the preservation and protection of biological materials and microorganisms” (TFCHEM, priority 2014, dated 2018).

For series [1], the system named is human neonatal skin fibroblasts. To be noted: for Lysis following bacterial stress at 48 h (OD490 nm): LDH release. The protocol:
The medium was changed every two days by 37° C. preheated fresh medium.

In series [2] the test system is neonatal skin fibroblasts (CCD-27SK, ATCC CRL-1475). The conditions noted are these: for Percentage of viability: 5 mg/mL in serum free medium. The protocol: II-1. Effect of Glycopeptide 17 on the Preservation/Protection of Neonatal Skin Fibroblasts Under Starvation Conditions. Evaluation by Trypan Blue Exclusion Method.
• The neonatal skin fibroblasts (Cell line: CCD-27SK, ATCC number CRL-1475) were grown with DMEM medium supplemented with Fetal Bovine Serum 10% final, antibiotics (Penicillin/Streptomycin) 1% final and Amphotericin B 0.1% final. • Fibroblasts were grown in 75 cm^2 culture flask to 80% confluence, in 37° C. and 10% CO2 incubator. The medium was changed every two days by 37° C. preheated fresh medium. Starvation Medium • This medium was composed of 45% subculturing medium without Fetal Bovine Serum mixed with 55% of Phosphate Buffer Saline 1× containing EDTA (final concentration of 0.45 mM). This was referred to as serum-free medium. Product Preparation • Compound 17 (MM=603.4 g/mol) was diluted in starvation medium to 5 mg/ml final and pH was adjusted at 7.4 by addition of NaOH 1N. General Experimental Procedure Assays on 96 Well Plates • Fibroblast cells were concentrated to 2.10^5 cells/ml and 100 μl of cell suspension was added in wells of a 96-well plate and incubated in 37° C. and 10% CO2 incubator for 4 hours. • After cell adhesion the medium was changed and plates were incubated (37° C.-10% CO2) to perform the assay as follow: • One plate for each sampling times: D0, D3, D4, D5, D6, D7, D10, D12 days • Three wells for each condition (triplicate count) added with 120 μl of culture medium (surviving control), starvation medium (serum-free control) or compound 17 solution at 5 mg/ml. […] So, only the dead cells are blue at microscopic observation. • For sampling, 110 μl of Trypan Blue (SIGMA T8154) was added to 110 μl of trypsinated cell suspension of matching well for counting. • […] of the trypan blue/cell mixture are dropped to a hemacytometer. Cells are counting by using a Neubauer-counting chamber. The unstained (viable) and stained (nonviable) cells are counted separately on 9 areas of 1 mm^2 forming a large square of 9 mm^2 and added to obtain the total number of cells per sample. An average of three counts was used to calculate the viability percentage as: [Number of viable cells/total number of cells]*100 • The cell viability percentages from cultures under starvation conditions were compared with control culture for several days after their addition (D0, D3, D4, D5, D6, D7, D10, D12).

Structures are written as SMILES. Read-outs that look alike come from different tables or passages of the source.

`C[C@H](NC(=O)[C@H](C)NC(=O)[C@@H](N)CCCCNCC(F)(F)C1(O)O[C@H](CO)[C@H](O)[C@H](O)[C@H]1O)C(=O)O.Cl.Cl` (stereo partly drawn) [Compound 17]: the “Lysis following bacterial stress at 48 h (OD490 nm)” value worked out at 0.333 ± 0.003 OD490 nm in series [1] (5 mg/mL), 0.293 ± 0.002 OD490 nm in series [1] (10 mg/mL) and 0.270 ± 0.005 OD490 nm in series [1] (15 mg/mL). Besides, the “protective effect against bacterial stress (in words)” value in series [1] (5 mg/ml to 15 mg/ml) is given as “protective effect on cells against bacterial stress”. The Percentage of viability in series [2] (D 0) is reported as 96.69 ± 1.85%; in series [2] (D 0, listed as compound 17), 97%; in series [2] (D 3), 91.03 ± 1.88%; in series [2] (D 4), 88.98 ± 2.48%; in series [2] (D 5), 86.65 ± 4.26%; in series [2] (D 6), 85.53 ± 1.57%. Besides, the Percentage of viability in series [2] (D 7) was 83.20 ± 3.72%; in series [2] (D 10), 80.62 ± 3.72%; in series [2] (D 12), 77.03 ± 2.02%; in series [2] (D 12, listed as compound 17), 77%. Moreover, in series [2] (starvation medium, 5 mg/ml, 12 days), the “preservative/protective effect on skin fibroblasts (in words)” value is on record as “significant preservative/protective effect”.
